Where two headings read alike, the source gives them in different places.
What was measured:
[1] = tested on: 2-phenyl-1,4-benzoquinone-induced writhing; assay: 2-phenyl-1,4-benzoquinone-induced writhing test (analgesia); assay type: in vivo, mice; conditions: Mus musculus, po
Excerpt: Compounds of the present invention are also useful as analgesic agents due to their ability to alleviate pain in mammals. […] Exptl. Biol. Med., 95, 729 (1957)].

[2] = tested on: carrageenin induced rat paw edema; assay: carrageenin induced rat paw edema anti-inflammatory assay; assay type: in vivo; conditions: for inhibition at 20 mg/kg: read-out: Time Response at 20 mg/kg % Inhibition; for ED50: po; for inhibition at 25 mg/kg: read-out: Time Response at 25 mg/kg % Inhibition
Excerpt: The compounds of the present invention are useful as anti-inflammatory agents due to their ability to suppress inflammation in mammals. […] Exptl. Biol. Med., III 544 (1962), J. Pharmacol. Exp. 141 […]] .

[3] = analgesic data, read-out: ED50 (p.o.)
[4] = pretreatment 6 hrs, read-out: ED50

Compound	ED50 [1, 3] [mg/kg]	inhibition at 20 mg/kg ([2]; pretreatment time 2 hrs.) [%]	inhibition at 20 mg/kg ([2]; pretreatment time 6 hrs) [%]	inhibition at 20 mg/kg ([2]; pretreatment time 18 hrs) [%]	inhibition at 20 mg/kg ([2]; pretreatment time 24 hrs) [%]	further results
O=C(CCCc1ccc2c(c1)C(=O)c1sccc1CO2)OCC(O)CO (racemic) [1-[(4,10-Dihydro-10-oxothieno[3,2-c][1]-benzoxepin-8-yl)-4-butyryl] glyceride]	9.4	–	–	–	–	–
CC(CCC(=O)O)c1ccc2c(c1)C(=O)c1sccc1CO2 (racemic) [(±)-4-(4,10-Dihydro-10-oxothieno[3,2-c][1]benzoxepin-8-yl)pentanoic acid]	–	23	–	–	–	inhibition at 20 mg/kg ([2]; pretreatment time 1 hr.): 25%; inhibition at 20 mg/kg ([2]; pretreatment time 4 hrs): 28%
CC1(C)OCC(COC(=O)CCCc2ccc3c(c2)C(=O)c2sccc2CO3)O1 (racemic) [(±)[2,2-Dimethyl-1,3-dioxolan-4-yl]methyl 4-[4,10-dihydro-10-oxothieno[3,2-c][1]benzoxepin-8-yl]butyrate]	11.2	20	61	32	41	ED50 [2, 4]: 14.5 mg/kg
CC(C)OC(=O)CCCc1ccc2c(c1)C(=O)c1sccc1CO2 [4-(4,10-Dihydro-10-oxothieno[3,2-c][1]benzoxepin-8-yl)-butyric acid isopropyl ester]	8.5	31	71	57	26	ED50 ([2]; pretreatment 2 hrs, estimated, read-out: Estimated ED50): 21.8 mg/kg
COC(=O)CCCc1ccc2c(c1)C(=O)c1sccc1CO2 [4-(4,10-Dihydro-10-oxothieno[3,2-c][1]benzoxepin-8-yl)-butyric acid methyl ester]	10.8	24	54	–	16	inhibition at 20 mg/kg ([2]; pretreatment time 8 hrs): 62%; ED50 [2, 4]: 10.3 mg/kg
O=C(O)CCCc1ccc2c(c1)C(=O)c1sccc1CO2 [4-(4,10-dihydro-10-oxothieno[3,2-c][1]benzoxepin-8-yl)-butyric acid]	–	–	–	–	–	inhibition at 25 mg/kg ([2]; pretreatment time 0.5 hr.): 49%; inhibition at 25 mg/kg ([2]; pretreatment time 1 hr): 52%; inhibition at 25 mg/kg ([2]; pretreatment time 2 hrs.): 79%; inhibition at 25 mg/kg ([2]; pretreatment time 3 hrs): 94%; inhibition at 25 mg/kg ([2]; pretreatment time 4 hrs): 95%; inhibition at 25 mg/kg ([2]; pretreatment time 6 hrs): 67%; inhibition at 25 mg/kg ([2]; pretreatment time 8 hrs): 47%; ED50 ([2]; 1 h, p.o., pretreatment 60 min, read-out: ED50): 77.9 mg/kg
CCOC(=O)CCCc1ccc2c(c1)C(=O)c1sccc1CO2 [Ethyl 4-[4,10-dihydro-10-oxothieno[3,2-c][1]benzoxepin-8-yl]butyrate]	8.2	40	48	15	22	–
CC1=C(CC(=O)O)c2cc(F)ccc2/C1=C\c1ccc([S+](C)[O-])cc1 (stereo not shown) [sulindac, reference compound]	–	–	–	–	–	ED50 ([1]; in a similar test, read-out: analgesic ED50): 6.2 mg/kg; ED50 ([2]; in a similar test, read-out: anti-inflammatory ED50): 10.7 mg/kg
CC(C)(C)OC(=O)CCCc1ccc2c(c1)C(=O)c1sccc1CO2 [t-Butyl 4-[4,10-dihydro-10-oxothieno-[3,2-c][1]benzoxepin-8-yl]butyrate]	–	49	–	–	–	inhibition at 20 mg/kg ([2]; pretreatment time 1 hr.): 42%; inhibition at 20 mg/kg ([2]; pretreatment time 4 hrs): 43%

From patent EP0118867A2, “Substituted 4,10-dihydro-10-oxothieno benzoxepins, a method of preparing the same and intermediate thereof and their use as medicaments” (HOECHST-ROUSSEL PHARMACEUTICALS INCORPORATED, priority 1983, dated 1984)
